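96-well plates; 48 h exposure; 5 concentrations. Endpoints by linear interpolation between flanking doses. Not reached: highest tested concentration assigned. The concentration for 50% growth inhibition is given as GI50.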 Activity calls are given as the source filed them. Rule as the data show it: active = GI50 up to about 1.1 µM and inactive = higher.
What was measured:
Assay in all cases: growth of human tumour cells (NCI), 48 h
[1] = system: A549
[2] = system: ACHN
[3] = system: COLO 205
[4] = system: HCT-15
[5] = system: KM12
[6] = system: MDA-N
[7] = system: Malme-3M
[8] = system: NCI-H226
[9] = system: NCI-H460
[10] = system: NCI/ADR-RES
[11] = system: OVCAR-4
[12] = system: OVCAR-8
[13] = system: RPMI-8226
[14] = system: SF-295
[15] = system: SK-MEL-28
[16] = system: SK-MEL-5
[17] = system: SN12C
[18] = system: SR
[19] = system: UACC-62
[20] = system: T47D

SMILES | GI50 [1] | GI50 [2] | GI50 [3] | GI50 [4] | GI50 [5] | GI50 [6] | GI50 [7] | GI50 [8] | GI50 [9] | GI50 [10] | GI50 [11] | GI50 [12] | GI50 [13] | GI50 [14] | GI50 [15] | GI50 [16] | GI50 [17] | GI50 [18] | GI50 [19] | GI50 [20]
Cc1c(N)nc([C@H](CC(N)=O)NC[C@H](N)C(N)=O)nc1C(=O)N[C@H](C(=O)N[C@H](C)[C@@H](O)[C@H](C)C(=O)N[C@H](C(=O)NCCc1nc(-c2nc(C(=O)NCCC[S+](C)C)cs2)cs1)[C@@H](C)O)C(OC1OC(CO)C(O)C(O)C1OC1OC(CO)C(O)C(OC(N)=O)C1O)c1c[nH]cn1 (some centres undefined) | 0.716 µM (active) | 0.00802 µM (active) | 6.05 µM (inactive) | 3.27 µM | 15.6 µM (inactive) | 14.8 µM (inactive) | 0.356 µM (active) | 0.222 µM (active) | 0.0644 µM (active) | 0.904 µM (active) | 4.92 µM (inactive) | 3.26 µM (inactive) | 17 µM (inactive) | 0.114 µM (active) | 18.2 µM (inactive) | 0.776 µM (active) | 0.984 µM (active) | 0.109 µM (active) | 0.451 µM (active) | –
OC(c1ccco1)C(F)(F)c1nc2ccccc2o1 (centres undefined) | – | > 100 µM (inactive) | > 100 µM (inactive) | > 100 µM | > 100 µM (inactive) | – | – | > 100 µM (inactive) | > 100 µM (inactive) | > 100 µM (inactive) | > 100 µM (inactive) | > 100 µM (inactive) | > 100 µM (inactive) | 56.8 µM (inactive) | > 100 µM (inactive) | > 100 µM (inactive) | – | > 100 µM (inactive) | > 100 µM (inactive) | 61.5 µM (inactive)
CC1=C(C(=O)Nc2ccccc2C)C(c2ccc(Cl)cc2)C(C(=O)Nc2ccccc2C)=C(C)N1 | > 100 µM (inactive) | > 100 µM (inactive) | > 100 µM (inactive) | > 100 µM | > 100 µM (inactive) | – | > 100 µM (inactive) | > 100 µM (inactive) | > 100 µM (inactive) | – | > 100 µM (inactive) | > 100 µM (inactive) | > 100 µM (inactive) | > 100 µM (inactive) | > 100 µM (inactive) | > 100 µM (inactive) | > 100 µM (inactive) | > 100 µM (inactive) | > 100 µM (inactive) | –
O=C(O)c1ccc2[nH]c(=O)oc2c1 | – | > 100 µM (inactive) | > 100 µM (inactive) | > 100 µM | > 100 µM (inactive) | > 100 µM (inactive) | > 100 µM (inactive) | > 100 µM (inactive) | > 100 µM (inactive) | > 100 µM (inactive) | – | > 100 µM (inactive) | > 100 µM (inactive) | > 100 µM (inactive) | > 100 µM (inactive) | – | > 100 µM (inactive) | > 100 µM (inactive) | > 100 µM (inactive) | –
Cc1cc(=O)oc2cc(OCc3c(F)cccc3Cl)ccc12 | > 100 µM (inactive) | 79.8 µM (inactive) | – | – | 1.99 µM (inactive) | 2.3 µM (inactive) | 0.728 µM (active) | 33.3 µM (inactive) | – | – | 48.4 µM (inactive) | > 100 µM (inactive) | – | 17.5 µM (inactive) | > 100 µM (inactive) | 3.66 µM (inactive) | > 100 µM (inactive) | – | 1.12 µM (inactive) | 2.49 µM (inactive)
C=C(C)C1CC=C(C)CC1 (centres undefined) | 968 µM (inactive) | 871 µM (inactive) | 1010 µM (inactive) | 891 µM | 1020 µM (inactive) | – | 885 µM (inactive) | 830 µM (inactive) | 968 µM (inactive) | – | 964 µM (inactive) | 1040 µM (inactive) | > 100 µM (inactive) | 925 µM (inactive) | 951 µM (inactive) | 849 µM (inactive) | 893 µM (inactive) | 889 µM (inactive) | 838 µM (inactive) | –

Source: ChEMBL document CHEMBL1201862, “PubChem BioAssay data set” (2004)
